Measurements from paper PMC7616161 (ACS chemical neuroscience, 2020).
Substitutions are numbered along the chain they refer to. Blank lines part the entries; values can stand above or below the compound they belong to.

How the values were obtained:
Assay type in all cases: cell-based
[1] = biological target: T1, hM1 WT mAChR (M1 muscarinic acetylcholine receptor) (Homo sapiens, UniProt P11229); assay: cell-based
T1 sequence (P11229 1-460): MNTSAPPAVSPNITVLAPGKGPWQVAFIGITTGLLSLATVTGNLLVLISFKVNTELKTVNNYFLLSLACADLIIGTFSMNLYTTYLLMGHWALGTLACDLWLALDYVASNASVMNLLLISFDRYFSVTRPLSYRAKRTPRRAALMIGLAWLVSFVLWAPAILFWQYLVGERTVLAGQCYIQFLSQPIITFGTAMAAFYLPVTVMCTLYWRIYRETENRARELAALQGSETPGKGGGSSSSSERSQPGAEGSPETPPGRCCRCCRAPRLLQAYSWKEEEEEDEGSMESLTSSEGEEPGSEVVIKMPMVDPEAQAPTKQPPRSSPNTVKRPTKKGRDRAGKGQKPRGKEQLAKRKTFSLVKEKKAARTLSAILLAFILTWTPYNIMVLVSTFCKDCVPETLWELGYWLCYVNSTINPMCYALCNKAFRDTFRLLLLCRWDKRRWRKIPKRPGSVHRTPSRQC

[2] = biological target: T2, hM1 WT mAChR (M1 muscarinic acetylcholine receptor) (Homo sapiens, UniProt P11229, A196G/Y106C); assay: IP1 accumulation
T2 sequence (P11229 1-460 Y106C/A196G): T1 sequence (P11229 1-460) with Y106C, A196G

[3] = biological target: T2, hM1 WT mAChR (M1 muscarinic acetylcholine receptor); assay: cell-based
[4] = biological target: T1, hM1 WT mAChR (M1 muscarinic acetylcholine receptor); assay: whole-cell [3H]NMS inhibition binding, allosteric ternary complex model
[5] = biological target: T1, hM1 WT mAChR (M1 muscarinic acetylcholine receptor); assay: IP1 accumulation; conditions: for pEC50^b / IP1 / M1WT: […] h, […] °C, pH […]
[6] = biological target: T3, hM1 WT mAChR (M1 muscarinic acetylcholine receptor) (Homo sapiens, UniProt P11229, Y106C/A196G); assay: whole-cell [3H]NMS inhibition binding, allosteric ternary complex model; conditions: M1 DREADD, printed as Y3.[…] and A5.[…]; HBSS, […] HEPES pH […]; allosteric
T3 sequence (P11229 1-460 Y106C/A196G): T1 sequence (P11229 1-460) with Y106C, A196G

[7] = biological target: T2, hM1 WT mAChR (M1 muscarinic acetylcholine receptor); assay: as above
[8] = biological target: T3, hM1 WT mAChR (M1 muscarinic acetylcholine receptor); assay: cell-based

Ki [1]: 12.6 µM
EC50 [2]: 0.00537 µM
Ki [3]: 0.126 µM
Structure (SMILES): C[N+]1([O-])CCN(C2=Nc3cc(Cl)ccc3Nc3ccccc32)CC1 [CNO]

pKI^b (nH)^c / M1WT ([4]; HBSS, […] HEPES pH […], allosteric): 6.0 ± 0.10
pEC50^b / IP1 / M1WT ([5]; allosteric agonist, no ACh added): 6.86 ± 0.19
pKI^b (nH)^c / M1DREADD [6]: 5.3 ± 0.09
Structure (SMILES): Cn1cc(-c2ccc(COc3ccccc3-c3cc(=O)n(C4CCCCC4O)cn3)cc2)cn1 (stereo not drawn) [MIPS1780, 3-(2-hydroxycyclohexyl)-6-(2-((4-(1-methyl-1H-pyrazol-4-yl)-benzyl)oxy)phenyl)-pyrimidin-4(3H)-one]

The remaining lines, values behind:

Structure (SMILES): Cc1cnc(C(=O)N[C@H]2CCOC[C@@H]2O)cc1Cc1ccc(-c2cscn2)cc1 [PF-06767832, N-((3R,4S)-3-hydroxytetrahydro-2H-pyran-4-yl)-5-methyl-4-(4-(thiazol-4-yl)benzyl)pyridine-2-carboxamide]
Ki [4]: 0.501 µM
EC50 [5]: 0.0129 µM
Ki [7]: 5.01 µM

Structure (SMILES): O=C(N[C@H]1CCCC[C@@H]1O)[C@H]1CN(Cc2ccc(-n3cccn3)cc2)c2ccccc2O1 [VU0486846, (2R)-N-[(1S,2S)-2-hydroxycyclohexyl]-4-[(4-pyrazol-1-ylphenyl)-methyl]-2,3-dihydro-1,4-benzoxazine-2-carboxamide]
Ki [4]: 0.794 µM
EC50 [5]: 0.372 µM
Ki [7]: 25.1 µM

Structure (SMILES): O=C1CCCN1CC#CCN1CCCC1 [oxotremorine]
pKI^b (nH)^c / M1WT [1]: 6.0 ± 0.04
pEC50^b / IP1 / M1WT ([5]; orthosteric agonist): 7.68 ± 0.12
pKI^b (nH)^c / M1DREADD [8]: 4.3 ± 0.05
